Source: the supplement of paper PMC6045584
± gives the standard deviation of the averaged measurements.

Experiments:
[1] = compound: CCn1c(C(=O)N(C2CC2)C2CC2)cc2c3c(ncn3C)c(Nc3cc(C)n(C)n3)nc21; experiment: surviving fraction relative to DMSO-only wells; higher = less growth inhibition; conditions: exposure time: 5 days
Method in brief: (§1)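 Log-phase tumour cell lines were seeded at 250–500 cells per well in 384-well plates. After 24 hours they were exposed continuously for five days to inhibitors at 0.5, 1, 5, 10, 50, 100, 500 and 1000 nM. Viability was read by CellTiter-Glo luminescence after 10 minutes at room temperature, and surviving fraction is luminescence normalised to the median of DMSO-only wells. Each line was screened three times and kept only if replicate Pearson r >0.7 and median Z' >0.3.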

SORAFENIB = compound: CNC(=O)c1cc(Oc2ccc(NC(=O)Nc3ccc(Cl)c(C(F)(F)F)c3)cc2)ccn1 [SORAFENIB]; experiment: as above; conditions: exposure time: 5 days
Method in brief: as §1

Test System | surviving fraction ([1]; 0.5 nM) | surviving fraction ([1]; 1 nM) | surviving fraction ([1]; 5 nM) | surviving fraction ([1]; 10 nM) | surviving fraction ([1]; 50 nM) | surviving fraction ([1]; 100 nM) | surviving fraction ([1]; 500 nM) | surviving fraction ([1]; 1000 nM) | surviving fraction (SORAFENIB; 0.5 nM) | surviving fraction (SORAFENIB; 1 nM) | surviving fraction (SORAFENIB; 5 nM) | surviving fraction (SORAFENIB; 10 nM) | surviving fraction (SORAFENIB; 50 nM) | surviving fraction (SORAFENIB; 100 nM) | surviving fraction (SORAFENIB; 500 nM) | surviving fraction (SORAFENIB; 1000 nM)
COLO320DM LARGE INTESTINE | 1.03 ± 0.053 | 1.11 ± 0.0081 | 1.15 ± 0.1 | 1.08 ± 0.11 | 1.17 ± 0.14 | 1.18 ± 0.095 | 1.14 ± 0.063 | 1.27 ± 0.22 | 1.13 ± 0.042 | 1.06 ± 0.04 | 1.15 ± 0.029 | 1.07 ± 0.075 | 1.21 ± 0.14 | 1.11 ± 0.013 | 1.18 ± 0.2 | 0.968 ± 0.074
PCI30 HEADNECK | 0.872 ± 0.024 | 0.74 ± 0.04 | 0.98 ± 0.05 | 1 ± 0.073 | 0.991 ± 0.065 | 1.01 ± 0.026 | 0.964 ± 0.013 | 0.895 ± 0.049 | 1.04 ± 0.038 | – | 1.02 ± 0.045 | 1.04 ± 0.06 | 1.06 ± 0.098 | 1.11 ± 0.096 | 1.11 ± 0.059 | 1.12 ± 0.013
SYO1 SYNOVIAL | 0.939 ± 0.069 | 0.927 ± 0.055 | 0.951 ± 0.027 | 0.917 ± 0.09 | 1.01 ± 0.051 | 0.97 ± 0.011 | 0.977 ± 0.045 | 0.98 ± 0.017 | 0.9613 ± 0.0017 | 1.02 ± 0.023 | 1.02 ± 0.045 | 0.981 ± 0.017 | 0.968 ± 0.025 | 0.912 ± 0.033 | – | 0.679 ± 0.022
A549 LUNG | 0.956 ± 0.034 | 0.941 ± 0.018 | 0.949 ± 0.02 | 0.963 ± 0.022 | 0.958 ± 0.057 | 1.024 ± 0.0095 | 1 ± 0.084 | 1.02 ± 0.03 | 0.994 ± 0.032 | 0.949 ± 0.017 | 1.01 ± 0.027 | – | – | 1.12 ± 0.043 | 1.12 ± 0.055 | 1.04 ± 0.02
HELA CERVIX | 1 ± 0.096 | 0.998 ± 0.036 | 0.939 ± 0.059 | 0.953 ± 0.044 | 1.09 ± 0.033 | 1.04 ± 0.026 | 1.05 ± 0.037 | 1.1 ± 0.09 | 1.03 ± 0.022 | 0.982 ± 0.024 | 0.986 ± 0.047 | 0.9492 ± 0.0068 | 1.1 ± 0.024 | 1.09 ± 0.062 | 1.07 ± 0.055 | –
SJSA1 BONE | 1.03 ± 0.041 | 1.01 ± 0.028 | 1.02 ± 0.028 | 1.01 ± 0.057 | 1.06 ± 0.021 | 1.07 ± 0.022 | 1.059 ± 0.007 | 1.05 ± 0.034 | 1.02 ± 0.012 | 0.969 ± 0.036 | 0.985 ± 0.048 | – | 1.07 ± 0.041 | 1.03 ± 0.041 | 1 ± 0.11 | 0.967 ± 0.026
HCC1806 BREAST | 0.959 ± 0.2 | 0.993 ± 0.095 | 1.13 ± 0.043 | 1.04 ± 0.089 | 1.02 ± 0.11 | 1.21 ± 0.1 | 0.982 ± 0.078 | 0.885 ± 0.12 | 0.985 ± 0.032 | 0.78 ± 0.45 | 1.03 ± 0.059 | 0.771 ± 0.66 | 1.14 ± 0.099 | 1.05 ± 0.14 | 1 ± 0.11 | 0.888 ± 0.081
MDAMB361 BREAST | 0.838 ± 0.094 | 0.87 ± 0.039 | 0.829 ± 0.083 | 0.812 ± 0.049 | 0.867 ± 0.055 | 0.8863 ± 0.0064 | 0.93 ± 0.083 | 0.842 ± 0.038 | 0.813 ± 0.078 | 0.862 ± 0.089 | 0.904 ± 0.029 | – | 0.909 ± 0.034 | 0.837 ± 0.03 | 0.796 ± 0.049 | 0.84 ± 0.098
HCT15 LARGE INTESTINE | 0.987 ± 0.032 | 0.972 ± 0.011 | 0.944 ± 0.021 | 0.986 ± 0.011 | 1.05 ± 0.043 | 1.05 ± 0.031 | 1.06 ± 0.018 | 1.06 ± 0.03 | 0.955 ± 0.029 | 0.989 ± 0.0099 | 0.99 ± 0.026 | 0.982 ± 0.021 | 1.09 ± 0.052 | 1.09 ± 0.064 | – | 1.06 ± 0.035
SCC003 HEADNECK | 0.92 ± 0.15 | 0.937 ± 0.047 | 1.02 ± 0.095 | 0.968 ± 0.015 | 1.11 ± 0.099 | 1.12 ± 0.12 | 0.917 ± 0.12 | 0.928 ± 0.045 | 0.898 ± 0.11 | 1.05 ± 0.12 | – | – | 1.12 ± 0.18 | 1.11 ± 0.081 | 1.24 ± 0.097 | –
MHM BONE | 0.979 ± 0.035 | 0.964 ± 0.015 | 1 ± 0.022 | 0.995 ± 0.013 | 1 ± 0.019 | 0.999 ± 0.0044 | 0.976 ± 0.024 | 0.949 ± 0.022 | 0.977 ± 0.025 | 1.01 ± 0.024 | – | 1.06 ± 0.051 | 1.071 ± 0.0061 | 1.08 ± 0.024 | 1.1 ± 0.034 | –
SG43 HEADNECK | 1.02 ± 0.22 | 1.02 ± 0.15 | 0.746 ± 0.015 | 0.935 ± 0.19 | 1.08 ± 0.27 | 0.767 ± 0.2 | 0.962 ± 0.31 | 0.784 ± 0.22 | 0.959 ± 0.085 | 1.19 ± 0.13 | – | 0.97 ± 0.082 | 1.18 ± 0.14 | 1.4 ± 0.095 | 1.98 ± 0.15 | 2.18 ± 0.21
MDAMB134 BREAST | 1.16 ± 0.2 | 1.07 ± 0.086 | 1.15 ± 0.23 | 0.87 ± 0.014 | 1.04 ± 0.14 | 0.986 ± 0.14 | 0.907 ± 0.0014 | 0.976 ± 0.025 | 1.04 ± 0.067 | 1.26 ± 0.12 | 1.06 ± 0.033 | 1.02 ± 0.031 | 1.06 ± 0.053 | 1.14 ± 0.091 | 1.21 ± 0.18 | –
SG27 HEADNECK | 0.996 ± 0.14 | 0.974 ± 0.089 | 1.01 ± 0.067 | 1.01 ± 0.056 | 1.02 ± 0.077 | 1.03 ± 0.11 | 0.915 ± 0.074 | 0.931 ± 0.17 | 1.04 ± 0.056 | 1.01 ± 0.059 | 1.18 ± 0.041 | 1.13 ± 0.074 | 1.03 ± 0.04 | 1.22 ± 0.1 | 1.27 ± 0.045 | 1.3 ± 0.051
OS25HAL BONE | 0.9497 ± 0.005 | 0.953 ± 0.018 | 0.945 ± 0.015 | 0.952 ± 0.022 | 1.04 ± 0.024 | 1.045 ± 0.0067 | 1.018 ± 0.0064 | 1.01 ± 0.011 | 0.99 ± 0.023 | 0.984 ± 0.0092 | 1.03 ± 0.035 | – | 1.06 ± 0.018 | 1.01 ± 0.049 | 0.855 ± 0.077 | 0.645 ± 0.056
NY BONE | 0.934 ± 0.0062 | 0.932 ± 0.038 | 1.002 ± 0.01 | 0.975 ± 0.026 | 1.02 ± 0.022 | 0.99 ± 0.013 | 0.922 ± 0.025 | 0.915 ± 0.018 | 1.01 ± 0.019 | 0.975 ± 0.033 | 1.04 ± 0.035 | 1.01 ± 0.027 | 1.08 ± 0.036 | 1.07 ± 0.044 | 1.02 ± 0.013 | 1.034 ± 0.0083
KPD BONE | 1.01 ± 0.074 | 0.951 ± 0.089 | 1.01 ± 0.043 | 0.991 ± 0.074 | 1.04 ± 0.047 | 1.01 ± 0.14 | 0.945 ± 0.017 | 0.99 ± 0.056 | 0.922 ± 0.019 | – | 1.03 ± 0.032 | – | 0.989 ± 0.075 | – | – | –
SNU475 LIVER | 0.974 ± 0.012 | 0.957 ± 0.049 | 0.973 ± 0.025 | 0.989 ± 0.026 | 0.979 ± 0.051 | 0.959 ± 0.017 | 0.938 ± 0.0085 | 0.895 ± 0.039 | 1.08 ± 0.036 | – | 1.04 ± 0.03 | 1.05 ± 0.032 | – | – | 1.17 ± 0.031 | 1.07 ± 0.042
JURKAT HAEMATOPOIETIC AND LYMPHOID TISSUE | 1.092 ± 0.0091 | 1.08 ± 0.017 | 1.09 ± 0.021 | 1.05 ± 0.037 | 1.05 ± 0.036 | 1.04 ± 0.034 | 1.08 ± 0.018 | 1.09 ± 0.014 | 1.106 ± 0.0035 | 1.1 ± 0.026 | 1.11 ± 0.039 | 1.11 ± 0.037 | 1.08 ± 0.023 | 1.06 ± 0.029 | – | 0.863 ± 0.012
MDAMB468 BREAST | 0.984 ± 0.047 | 1.02 ± 0.059 | 1.05 ± 0.067 | 1.06 ± 0.09 | 1.05 ± 0.039 | 1.05 ± 0.074 | 0.985 ± 0.046 | 1.03 ± 0.095 | 1 ± 0.083 | – | 1.15 ± 0.062 | 1.09 ± 0.072 | 1.28 ± 0.073 | 1.26 ± 0.12 | 1.23 ± 0.029 | 1.21 ± 0.051
HSSYII SYNOVIAL | 0.918 ± 0.058 | 0.908 ± 0.022 | 0.905 ± 0.061 | 0.901 ± 0.022 | 0.937 ± 0.025 | 0.926 ± 0.027 | 0.926 ± 0.049 | 0.887 ± 0.039 | 1 ± 0.059 | 0.975 ± 0.026 | 0.977 ± 0.038 | 0.942 ± 0.035 | 0.947 ± 0.037 | 1.01 ± 0.024 | 0.855 ± 0.035 | 0.779 ± 0.038
NCIH441 LUNG | 0.92 ± 0.068 | 0.97 ± 0.033 | 1.03 ± 0.033 | 1.01 ± 0.13 | 0.952 ± 0.063 | 1.04 ± 0.037 | 1.06 ± 0.068 | 1.04 ± 0.017 | 1.12 ± 0.014 | 1.07 ± 0.028 | 1.12 ± 0.12 | 0.967 ± 0.042 | 0.992 ± 0.023 | 0.99 ± 0.12 | 0.927 ± 0.04 | 0.834 ± 0.016
